Values joined by “and” are separate entries in the source; they are usually repeats but may differ in a detail not shown here. Equal entries are not always repeated.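 Protocol summary: plate cells (96-well), add compound at 5 concentrations, incubate 48 h, interpolate endpoints linearly. GI50: concentration for 50% inhibition of growth.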 Active and inactive are the calls of the source. Rule as the data show it: active = GI50 up to about 1.1 µM and inactive = higher.
Columns and labels:
Assay in all cases: NCI-60 cell line screen, 48 h
NCI-H23 = tested on: NCI-H23
CAKI-1 = tested on: CAKI-1
MOLT-4 = tested on: MOLT-4
IGROV-1 = tested on: IGROV-1
Hs-578T = tested on: Hs-578T
XF498 = tested on: XF498
MCF7 = tested on: MCF7
ACHN = tested on: ACHN
LXFL 529 = tested on: LXFL 529
NCI-H522 = tested on: NCI-H522
MDA-MB-435 = tested on: MDA-MB-435
OVCAR-8 = tested on: OVCAR-8
HCT-15 = tested on: HCT-15
HCC 2998 = tested on: HCC 2998
HL-60 = tested on: HL-60
DLD-1 = tested on: DLD-1
SR = tested on: SR
DMS-273 = tested on: DMS-273
SF-539 = tested on: SF-539
LOX IMVI = tested on: LOX IMVI
MDA-N = tested on: MDA-N
M14 = tested on: M14
A549 = tested on: A549
RPMI-8226 = tested on: RPMI-8226
BT-549 = tested on: BT-549
U-251 = tested on: U-251
HT-29 = tested on: HT-29
DU-145 = tested on: DU-145
SK-MEL-5 = tested on: SK-MEL-5
PC-3 = tested on: PC-3
NCI-H460 = tested on: NCI-H460
MDA-MB-231 = tested on: MDA-MB-231
KM-20L2 = tested on: KM-20L2
HCT-116 = tested on: HCT-116
786-0 = tested on: 786-0
SNB-19 = tested on: SNB-19
HOP-62 = tested on: HOP-62
NCI-H226 = tested on: NCI-H226
SNB-75 = tested on: SNB-75
EKVX = tested on: EKVX
UO-31 = tested on: UO-31
SNB-78 = tested on: SNB-78
SF-295 = tested on: SF-295
M19-MEL = tested on: M19-MEL
SK-MEL-2 = tested on: SK-MEL-2
HOP-92 = tested on: HOP-92
K562 = tested on: K562
OVCAR-5 = tested on: OVCAR-5
SF-268 = tested on: SF-268
OVCAR-3 = tested on: OVCAR-3
SN12C = tested on: SN12C
CCRF-CEM = tested on: CCRF-CEM
COLO 205 = tested on: COLO 205
SW-620 = tested on: SW-620
KM12 = tested on: KM12
OVCAR-4 = tested on: OVCAR-4
DMS-114 = tested on: DMS-114
SK-OV-3 = tested on: SK-OV-3
Malme-3M = tested on: Malme-3M
SK-MEL-28 = tested on: SK-MEL-28
UACC-257 = tested on: UACC-257
UACC-62 = tested on: UACC-62
TK-10 = tested on: TK-10
RXF 393 = tested on: RXF 393
A498 = tested on: A498

## Nc1nc(N)c2nc(CNc3ccc(C(=O)NC(CCCNC(=O)c4ccccc4C(=O)O)C(=O)O)cc3)cnc2n1 (centres undefined)
NCI-H23
  GI50: < 0.01 µM (active)
CAKI-1
  GI50: 0.01 µM (active)
MOLT-4
  GI50: < 19.4 nM (active) and < 10 nM (active)
IGROV-1
  GI50: < 0.01 µM (active)
Hs-578T
  GI50: > 100 µM (inactive)
XF498
  GI50: > 100 µM (inactive)
MCF7
  GI50: 0.01 µM (active)
ACHN
  GI50: 0.01 µM (active)
LXFL 529
  GI50: 0.000762 µM (active)
NCI-H522
  GI50: < 0.01 µM (active)
MDA-MB-435
  GI50: 0.00311 µM (active)
OVCAR-8
  GI50: < 0.01 µM (active)
HCT-15
  GI50: 0.01 µM
HCC 2998
  GI50: < 0.01 µM (active)
HL-60
  GI50: < 0.01 µM (active)
DLD-1
  GI50: < 0.01 µM (active)
SR
  GI50: 0.01 µM (active)
DMS-273
  GI50: 0.01 µM (active)
SF-539
  GI50: < 0.01 µM (active)
LOX IMVI
  GI50: < 0.01 µM (active)
MDA-N
  GI50: 0.01 µM (active)
M14
  GI50: 0.01 µM (active)
A549
  GI50: < 0.01 µM (active)
RPMI-8226
  GI50: < 0.01 µM (active)
BT-549
  GI50: 6.18 µM (inactive)
U-251
  GI50: < 10 nM (active) and 14.3 nM (active)
HT-29
  GI50: < 0.01 µM (active)
DU-145
  GI50: 0.01 µM (active)
SK-MEL-5
  GI50: 10 nM (active) and < 18.4 nM (active)
PC-3
  GI50: 0.01 µM (active)
NCI-H460
  GI50: < 0.01 µM (active)
MDA-MB-231
  GI50: > 100 µM (inactive)
KM-20L2
  GI50: 0.00875 µM (active)
HCT-116
  GI50: < 0.215 µM (active)
786-0
  GI50: 0.01 µM (active)
SNB-19
  GI50: < 20.2 nM (active) and 21.6 nM (active)

## COc1ccc(C(C2=C(C)C(=O)c3ccccc3C2=O)c2ccc(C(C)C)cc(=O)c2O)cc1 (centres undefined)
HOP-62
  GI50: 2.59 µM (inactive)
NCI-H23
  GI50: 3.51 µM (inactive)
CAKI-1
  GI50: 3.03 µM (inactive)
MOLT-4
  GI50: 3.47 µM (inactive)
NCI-H226
  GI50: 1.7 µM (inactive)
IGROV-1
  GI50: 4.16 µM (inactive)
XF498
  GI50: 0.685 µM (active)
ACHN
  GI50: 3.05 µM (inactive)
LXFL 529
  GI50: 4.06 µM (inactive)
NCI-H522
  GI50: 13.8 µM (inactive)
OVCAR-8
  GI50: 4.18 µM (inactive)
HCT-15
  GI50: 2.58 µM
SNB-75
  GI50: 2.59 µM (inactive)
HL-60
  GI50: 2.61 µM (inactive)
DLD-1
  GI50: 4.79 µM (inactive)
EKVX
  GI50: 2.77 µM (inactive)
UO-31
  GI50: 2.12 µM (inactive)
SNB-78
  GI50: 5.41 µM (inactive)
SR
  GI50: 3.29 µM (inactive)
DMS-273
  GI50: 2.23 µM (inactive)
SF-539
  GI50: 2.69 µM (inactive)
SF-295
  GI50: 4.7 µM (inactive)
LOX IMVI
  GI50: 3.55 µM (inactive)
M19-MEL
  GI50: 2.22 µM (inactive)
SK-MEL-2
  GI50: 1.16 µM (inactive)
HOP-92
  GI50: 3.57 µM (inactive)
K562
  GI50: 3.55 µM (inactive)
OVCAR-5
  GI50: 2.06 µM (inactive)
SF-268
  GI50: 3.77 µM (inactive)
M14
  GI50: 2.53 µM (inactive)
OVCAR-3
  GI50: 2.68 µM (inactive)
SN12C
  GI50: 2.87 µM (inactive)
A549
  GI50: 3.55 µM (inactive)
RPMI-8226
  GI50: 3.74 µM (inactive)
CCRF-CEM
  GI50: 3.73 µM (inactive)
COLO 205
  GI50: 5.31 µM (inactive)
SW-620
  GI50: 6.1 µM (inactive)
KM12
  GI50: 4.3 µM (inactive)
U-251
  GI50: 3.12 µM (inactive)
OVCAR-4
  GI50: 6.49 µM (inactive)
HT-29
  GI50: 6.04 µM (inactive)
DMS-114
  GI50: 2.82 µM (inactive)
SK-MEL-5
  GI50: 5.96 µM (inactive)
NCI-H460
  GI50: 3.78 µM (inactive)
HCT-116
  GI50: 3.81 µM (inactive)
786-0
  GI50: 2.53 µM (inactive)
SK-OV-3
  GI50: 3.49 µM (inactive)
Malme-3M
  GI50: 4.26 µM (inactive)

## CN1CC2(CCCCC2)C(O)C12C=CCCC2 (centres undefined)
HOP-62
  GI50: > 100 µM (inactive)
NCI-H23
  GI50: > 100 µM (inactive)
CAKI-1
  GI50: > 100 µM (inactive)
MOLT-4
  GI50: > 100 µM (inactive)
NCI-H226
  GI50: > 100 µM (inactive)
SK-MEL-28
  GI50: > 100 µM (inactive)
IGROV-1
  GI50: > 100 µM (inactive)
UACC-257
  GI50: > 100 µM (inactive)
XF498
  GI50: > 100 µM (inactive)
LXFL 529
  GI50: > 100 µM (inactive)
NCI-H522
  GI50: > 100 µM (inactive)
OVCAR-8
  GI50: > 100 µM (inactive)
HCT-15
  GI50: > 100 µM
SNB-75
  GI50: 69.5 µM (inactive)
HCC 2998
  GI50: > 100 µM (inactive)
HL-60
  GI50: > 100 µM (inactive)
DLD-1
  GI50: > 100 µM (inactive)
EKVX
  GI50: > 100 µM (inactive)
UACC-62
  GI50: > 100 µM (inactive)
UO-31
  GI50: > 100 µM (inactive)
SNB-78
  GI50: > 100 µM (inactive)
DMS-273
  GI50: > 100 µM (inactive)
TK-10
  GI50: > 100 µM (inactive)
SF-539
  GI50: > 100 µM (inactive)
SF-295
  GI50: > 100 µM (inactive)
LOX IMVI
  GI50: > 100 µM (inactive)
M19-MEL
  GI50: > 100 µM (inactive)
RXF 393
  GI50: > 100 µM (inactive)
SK-MEL-2
  GI50: > 100 µM (inactive)
K562
  GI50: > 100 µM (inactive)
SF-268
  GI50: > 100 µM (inactive)
M14
  GI50: > 100 µM (inactive)
OVCAR-3
  GI50: > 100 µM (inactive)
SN12C
  GI50: > 100 µM (inactive)
A549
  GI50: > 100 µM (inactive)
RPMI-8226
  GI50: > 100 µM (inactive)
CCRF-CEM
  GI50: > 100 µM (inactive)
COLO 205
  GI50: > 100 µM (inactive)
A498
  GI50: > 100 µM (inactive)
SW-620
  GI50: > 100 µM (inactive)
KM12
  GI50: > 100 µM (inactive)
U-251
  GI50: > 100 µM (inactive)
HT-29
  GI50: > 100 µM (inactive)
DMS-114
  GI50: > 100 µM (inactive)
SK-MEL-5
  GI50: > 100 µM (inactive)
KM-20L2
  GI50: > 100 µM (inactive)
786-0
  GI50: > 100 µM (inactive)
SK-OV-3
  GI50: > 100 µM (inactive)
Malme-3M
  GI50: > 100 µM (inactive)
SNB-19
  GI50: > 100 µM (inactive)
